Assay [1] relates to Candida albicans (ATCC 38247). Description: Antifungal MIC assay. The conditions noted are these: B = C. albicans ATCC 38247. It counts as cell-based. The method in brief:
(§1)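 MIC determined by broth microdilution in microtiter plates per NCCLS documents M7-A4, M11-A4 (1997) and M27-T (1995). Antifungal testing against the yeast followed the method recommended in the Manual of Clinical Microbiology (1995).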

Another assay deals with S. pneumoniae ATCC 49619. Description: MIC, NCCLS broth microdilution assay. The assay is classed as cell-based, Streptococcus pneumoniae. The following applies: H = S. pneumoniae ATCC 49619. The procedure, abridged: (§2)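 Broth microdilution per NCCLS M7-A4 (1997) guidelines; MIC recorded as minimal inhibitory concentration.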
(In broth dilution the organism is exposed to a series of concentrations in liquid medium.)

In assay [2] the test system is Staphylococcus aureus (ATCC 13709, a methicillin sensitive strain (MSSA)). Nature of the assay: MIC, NCCLS broth microdilution assay. The assay is classed as cell-based. The conditions noted are these: E = S. aureus ATCC 13709. The method in brief:
as §1

For assay [3], the system named is Staphylococcus aureus (ATCC 27660, a methicillin resistant strain (MRSA)). Description: MIC, NCCLS broth microdilution assay. The following applies: F = S. aureus ATCC 27660. The assay is classed as cell-based. The method in brief: as §1
For assay [4], the system named is Bacillus cereus (ATCC 11778). Description: MIC, NCCLS broth microdilution assay. The following applies: A = B. cereus ATCC 11778. It counts as cell-based. The procedure, abridged:
as §1

A further assay has as its system E. faecalis ATCC 29212. Nature of the assay: MIC, NCCLS broth microdilution assay. It counts as cell-based, Enterococcus faecalis. The following applies: C = E. faecalis ATCC 29212. The method in brief:
as §2

Where [5] appears, read: Staphylococcus aureus, read-out: Minimum Inhibitory Concentration (MIC).

Converted amounts (≈) assume the structure as drawn. Where only a bound is given, the exact number is not on record here.

Experimental findings from patent US7348427B2, “Antipathogenic benzamide compounds” (Genesoft Pharmaceuticals, Inc., priority 2001, dated 2008) are described below.

For `Cn1cc(NC(=O)c2cc(NC(=O)c3cc(NC(=O)c4ccc(OC(F)F)cc4)cn3C)cn2C)cc1C(=O)NCCN1CCSCC1` [Compound B-86], the “Minimum Inhibitory Concentration (MIC)” value is more than 32 µg/mL in assay [1]; “+++ (+++ = MIC ≦ 4)” in the assay with S. pneumoniae ATCC 49619; “+++ (+++ = MIC ≦ 4)” in assay [2]; “+++ (+++ = MIC ≦ 4)” in assay [3]; “+++ (+++ = MIC ≦ 4)” in assay [4]; “+++ (+++ = MIC ≦ 4)” in the assay on E. faecalis ATCC 29212.

As for `Cn1cc(NC(=O)c2ccc(F)cc2F)cc1C(=O)Nc1cc(C(=O)Nc2c[nH]c(C(=O)NCCN3CCOCC3)c2)n(C)c1` [Compound C-1], the MIC is more than 32 µg/mL in assay [1] (Candida albicans, ATCC38247, read-out: Minimum Inhibitory Concentration (MIC)); not above 4 µg/mL in the assay with S. pneumoniae ATCC 49619 (Streptococcus pneumoniae, ATCC49619, read-out: Minimum Inhibitory Concentration (MIC)); 4 to 12 µg/mL (≈ 6.42 to 19.3 µM) in assay [2] (setting [5]); 12 to 32 µg/mL (≈ 19.3 to 51.4 µM) in assay [3] (setting [5]); 12 to 32 µg/mL (≈ 19.3 to 51.4 µM) in assay [4] (Bacillus cereus, ATCC11778, read-out: Minimum Inhibitory Concentration (MIC)); 4 to 12 µg/mL (≈ 6.42 to 19.3 µM) in the assay with E. faecalis ATCC 29212 (Enterococcus faecalis, ATCC29212, read-out: Minimum Inhibitory Concentration (MIC)).

As for `Cn1cc(NC(=O)c2cc(NC(=O)c3cc(NC(=O)c4ccc(F)cc4F)cn3C)c[nH]2)cc1C(=O)NCCN1CCOCC1` [Compound C-2], the “Minimum Inhibitory Concentration (MIC)” value was more than 32 µg/mL in assay [1]; “+++ (+++ = MIC ≦ 4)” in the assay with S. pneumoniae ATCC 49619; “++ (++ = 4 < MIC < 12)” in assay [2]; “++ (++ = 4 < MIC < 12)” in assay [3]; “++ (++ = 4 < MIC < 12)” in assay [4]; “++ (++ = 4 < MIC < 12)” in the assay with E. faecalis ATCC 29212.

In the case of `Cn1cc(NC(=O)c2cc(NC(=O)c3cc(NC(=O)c4ccc(F)cc4F)c[nH]3)c[nH]2)cc1C(=O)NCCN1CCOCC1` [Compound C-3], the “Minimum Inhibitory Concentration (MIC)” value was more than 32 µg/mL in assay [1]; “+++ (+++ = MIC ≦ 4)” in the assay with S. pneumoniae ATCC 49619; “+ (+ = 12 ≦ MIC ≦ 32)” in assay [2]; “+ (+ = 12 ≦ MIC ≦ 32)” in assay [3]; “+ (+ = 12 ≦ MIC ≦ 32)” in assay [4]; “++ (++ = 4 < MIC < 12)” with E. faecalis ATCC 29212.

Take `Cn1cc(NC(=O)c2cc(NC(=O)c3cc(NC(=O)c4ccc(F)cc4F)cn3C)cn2CCCO)cc1C(=O)NCCN1CCOCC1` [Compound C-4]: the “Minimum Inhibitory Concentration (MIC)” value in assay [1] is more than 32 µg/mL; in the assay with S. pneumoniae ATCC 49619, “+++ (+++ = MIC ≦ 4)”; in assay [2] it was “+ (+ = 12 ≦ MIC ≦ 32)”; in assay [3], “+ (+ = 12 ≦ MIC ≦ 32)”; in assay [4], “+ (+ = 12 ≦ MIC ≦ 32)”; in the assay with E. faecalis ATCC 29212 it was “+ (+ = 12 ≦ MIC ≦ 32)”.

Take `Cn1cc(NC(=O)c2cc(NC(=O)c3cc(NC(=O)c4ccc(F)cc4F)c[nH]3)cn2CCCO)cc1C(=O)NCCN1CCOCC1` [Compound C-5]: the “Minimum Inhibitory Concentration (MIC)” value in assay [1] is more than 32 µg/mL; in the assay with S. pneumoniae ATCC 49619 it was “+++ (+++ = MIC ≦ 4)”; in assay [2], “+ (+ = 12 ≦ MIC ≦ 32)”; in assay [3], “+ (+ = 12 ≦ MIC ≦ 32)”; in assay [4] it was “+ (+ = 12 ≦ MIC ≦ 32)”; in the assay with E. faecalis ATCC 29212, “+ (+ = 12 ≦ MIC ≦ 32)”.

Regarding `Cn1cc(NC(=O)c2cc(NC(=O)c3cc(NC(=O)c4ccc(F)cc4F)cn3CCCO)cn2C)cc1C(=O)NCCN1CCOCC1` [Compound C-6], the “Minimum Inhibitory Concentration (MIC)” value in assay [1] was more than 32 µg/mL; with S. pneumoniae ATCC 49619, “+++ (+++ = MIC ≦ 4)”; in assay [2] it was “+ (+ = 12 ≦ MIC ≦ 32)”; in assay [3], “+ (+ = 12 ≦ MIC ≦ 32)”; in assay [4], “+ (+ = 12 ≦ MIC ≦ 32)”; with E. faecalis ATCC 29212, “+ (+ = 12 ≦ MIC ≦ 32)”.

For the compound `COCn1cc(NC(=O)c2ccc(F)cc2F)cc1C(=O)Nc1cc(C(=O)Nc2cc(C(=O)NCCN3CCOCC3)n(C)c2)n(C)c1` [Compound C-7], the “Minimum Inhibitory Concentration (MIC)” value was more than 32 µg/mL in assay [1]; “+++ (+++ = MIC ≦ 4)” with S. pneumoniae ATCC 49619; “++ (++ = 4 < MIC < 12)” in assay [2]; “+ (+ = 12 ≦ MIC ≦ 32)” in assay [3]; “+ (+ = 12 ≦ MIC ≦ 32)” in assay [4]; “+ (+ = 12 ≦ MIC ≦ 32)” with E. faecalis ATCC 29212.

`Cn1cc(NC(=O)c2cc(NC(=O)c3ccc(Cl)cc3F)c[nH]2)cc1C(=O)Nc1c[nH]c(C(=O)NCCN2CCOCC2)c1` [Compound C-8]: the “Minimum Inhibitory Concentration (MIC)” value (in assay [1]; with S. pneumoniae ATCC 49619; in assay [2]; in assay [3]; in assay [4]; in the assay on E. faecalis ATCC 29212) was “+++ (+++ = MIC ≦ 4)” throughout.

Regarding `Cn1cc(NC(=O)c2cc(NC(=O)c3cc(NC(=O)c4ccc(Cl)cc4F)cn3C)c[nH]2)cc1C(=O)NCCN1CCOCC1` [Compound C-10], the “Minimum Inhibitory Concentration (MIC)” value in assay [1] was “+ (+ = 12 ≦ MIC ≦ 32)”; in the assay on S. pneumoniae ATCC 49619, “+++ (+++ = MIC ≦ 4)”; in assay [2], “+++ (+++ = MIC ≦ 4)”; in assay [3], “+++ (+++ = MIC ≦ 4)”; in assay [4], “+++ (+++ = MIC ≦ 4)”; in the assay on E. faecalis ATCC 29212, “+++ (+++ = MIC ≦ 4)”.

Regarding `Cn1cc(NC(=O)c2cc(NC(=O)c3cc(NC(=O)c4ccc(Cl)cc4F)c[nH]3)cn2CCCO)cc1C(=O)NCCN1CCOCC1` [Compound C-14], the “Minimum Inhibitory Concentration (MIC)” value in assay [1] was more than 32 µg/mL; with S. pneumoniae ATCC 49619 it was “+++ (+++ = MIC ≦ 4)”; in assay [2] it was “+++ (+++ = MIC ≦ 4)”; in assay [3], “+++ (+++ = MIC ≦ 4)”; in assay [4], “+++ (+++ = MIC ≦ 4)”; in the assay with E. faecalis ATCC 29212, “++ (++ = 4 < MIC < 12)”.

Consider `Cn1cc(NC(=O)c2cc(NC(=O)c3cc(NC(=O)c4ccc(Cl)cc4F)c[nH]3)cn2CCCO)cc1C(=O)NCCN1CCOCC1` [Compound C-15], for which the “Minimum Inhibitory Concentration (MIC)” value in assay [1] is more than 32 µg/mL; in the assay on S. pneumoniae ATCC 49619, “+++ (+++ = MIC ≦ 4)”; in assay [2], “++ (++ = 4 < MIC < 12)”; in assay [3], “+++ (+++ = MIC ≦ 4)”; in assay [4], “++ (++ = 4 < MIC < 12)”; in the assay with E. faecalis ATCC 29212, “+ (+ = 12 ≦ MIC ≦ 32)”.

As for `Cn1cc(NC(=O)c2cc(NC(=O)c3cc(NC(=O)c4ccc(Cl)cc4F)cn3CCCO)cn2C)cc1C(=O)NCCN1CCOCC1` [Compound C-16], the “Minimum Inhibitory Concentration (MIC)” value in assay [1] was more than 32 µg/mL; in the assay on S. pneumoniae ATCC 49619 it was “+++ (+++ = MIC ≦ 4)”; in assay [2] it was “+++ (+++ = MIC ≦ 4)”; in assay [3] it was “+++ (+++ = MIC ≦ 4)”; in assay [4] it was “+++ (+++ = MIC ≦ 4)”; with E. faecalis ATCC 29212, “+++ (+++ = MIC ≦ 4)”.

For the compound `COCn1cc(NC(=O)c2ccc(Cl)cc2F)cc1C(=O)Nc1cc(C(=O)Nc2cc(C(=O)NCCN3CCOCC3)n(C)c2)n(C)c1` [Compound C-17], the “Minimum Inhibitory Concentration (MIC)” value in assay [1] was more than 32 µg/mL; in the assay on S. pneumoniae ATCC 49619 it was “+++ (+++ = MIC ≦ 4)”; in assay [2], “+++ (+++ = MIC ≦ 4)”; in assay [3] it was “+++ (+++ = MIC ≦ 4)”; in assay [4], “+++ (+++ = MIC ≦ 4)”; in the assay on E. faecalis ATCC 29212, “+++ (+++ = MIC ≦ 4)”.

With `Cn1cc(NC(=O)c2cc(NC(=O)c3cc(NC(=O)c4ccc(Cl)cc4F)cn3C)cn2CCCCl)cc1C(=O)NCCN1CCOCC1` [Compound C-18], the “Minimum Inhibitory Concentration (MIC)” value is more than 32 µg/mL in assay [1]; “+++ (+++ = MIC ≦ 4)” in the assay with S. pneumoniae ATCC 49619; “+++ (+++ = MIC ≦ 4)” in assay [2]; “+++ (+++ = MIC ≦ 4)” in assay [3]; “+++ (+++ = MIC ≦ 4)” in assay [4]; “+++ (+++ = MIC ≦ 4)” in the assay on E. faecalis ATCC 29212.

`Cn1cc(NC(=O)c2cc(NC(=O)c3cc(NC(=O)c4ccc(Cl)cc4F)c[nH]3)cn2CCCCl)cc1C(=O)NCCN1CCOCC1` [Compound C-19]: the “Minimum Inhibitory Concentration (MIC)” value in assay [1] is more than 32 µg/mL; in the assay with S. pneumoniae ATCC 49619, “+++ (+++ = MIC ≦ 4)”; in assay [2] it was “+++ (+++ = MIC ≦ 4)”; in assay [3], “+++ (+++ = MIC ≦ 4)”; in assay [4], “+++ (+++ = MIC ≦ 4)”; in the assay with E. faecalis ATCC 29212 it was “+++ (+++ = MIC ≦ 4)”.
